What all share (assay): thermal shift assay, SYPRO Orange, real-time PCR
What all share (type): binding

Assay [1] deals with T1, TctC-44430 (TctC, locus tag VPARA-44430) (Variovorax paradoxus, UniProt A0A0H2LXQ8).
T1 construct: gene VPARA_44430; His-tagged (pET19b N-terminal; pET23a C-terminal also made), E. coli BL21
T1 sequence (A0A0H2LXQ8 1-329 limits assumed): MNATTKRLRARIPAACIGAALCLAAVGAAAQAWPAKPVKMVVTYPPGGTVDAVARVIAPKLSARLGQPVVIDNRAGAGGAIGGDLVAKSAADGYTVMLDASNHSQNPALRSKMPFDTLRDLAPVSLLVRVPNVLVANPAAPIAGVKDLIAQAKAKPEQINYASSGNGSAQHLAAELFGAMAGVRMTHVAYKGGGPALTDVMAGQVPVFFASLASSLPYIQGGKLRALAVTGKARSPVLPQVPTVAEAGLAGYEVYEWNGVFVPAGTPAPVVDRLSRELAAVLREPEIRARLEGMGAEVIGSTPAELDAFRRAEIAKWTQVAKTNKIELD
The note with it: 1 μM protein, sodium phosphate pH 7.4; value is the melting temperature, not the shift; control Tm not given.

The target in assay [2] is T2, TctC protein with locus tag VPARA-01760 (Variovorax paradoxus, UniProt A0A0H2MDR2).
T2 construct: gene VPARA_01760; His-tagged (pET19b or pET23a)
T2 sequence (A0A0H2MDR2 1-326 limits assumed): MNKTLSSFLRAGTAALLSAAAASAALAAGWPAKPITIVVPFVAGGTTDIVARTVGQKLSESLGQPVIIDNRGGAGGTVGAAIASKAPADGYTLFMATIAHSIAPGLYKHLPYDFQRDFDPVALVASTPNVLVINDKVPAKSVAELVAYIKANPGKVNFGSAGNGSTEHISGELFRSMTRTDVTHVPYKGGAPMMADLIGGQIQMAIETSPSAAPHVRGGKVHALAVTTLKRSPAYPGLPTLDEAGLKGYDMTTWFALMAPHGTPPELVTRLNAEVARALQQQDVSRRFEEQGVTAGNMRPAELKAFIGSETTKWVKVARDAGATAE
The following applies: 1 μM protein, sodium phosphate pH 7.4, 0.1 to 3000 μM ligand.

In assay [3] the target is T1, TctC-44430 (TctC, locus tag VPARA-44430). The following applies: 1 μM protein, sodium phosphate pH 7.4; value is the melting temperature, not the shift; control Tm not given. This is another data set of the same source.

With `O=C(O)CCSCCC(=O)O` [TDP, 3,3′-Thiodipropionic acid], in assay [1], the “Tm at 3000 μM TDP” value worked out at 56 °C. The Tm shift result in assay [2] is given as “VPARA-01760 also showed temperature shifts with TDP or gluconate”.

On to `O=C(O)[C@H](O)[C@@H](O)[C@H](O)[C@H](O)CO` [gluconate], for which the Tm shift entry in assay [2] is reported as “VPARA-01760 also showed temperature shifts with TDP or gluconate”. For the same molecule, in assay [3], the “Tm at 3000 μM gluconate” value worked out at 83 °C.

For the origin of these results see publication PMC8102459, “3,3′-Thiodipropionic acid (TDP), a possible precursor for the synthesis of polythioesters: identification of TDP transport proteins in Variovorax paradoxus TBEA6” (Applied Microbiology and Biotechnology, 2021).
